Experimental findings from US20240336567A1, “PESTICIDAL AND HERBICIDAL COMPOUNDS AND METHODS OF USE THEREOF” (AG Plenus Ltd, priority 2021, published 2024) are described below.

The subject of one test is SETVI. Kind of test: In-planta LTP pre-emergence, visual phenotype. The format is in vivo, Setaria viridis. Conditions: monocot; for pest or weed control at 2000 g/ha: Setaria viridis, 432 h. The method, then: (§1) A basic panel of 8 weed species (Table 3) were sowed in 4×4×7 cm plastic pots containing inert sand (Sweet sand), intensively washed using osmosis water. Each specie was sowed in a separate pot. In each pot 10-15 seeds were sowed according to the specie viability. Sowing was performed one day before application. The plants were grown for 21 days in a controlled greenhouse (26±2° C. day 20±2° C. night). Hood irrigation (tap water+Shefer 5:3:8 8 mM) was given at a 50% water content by weight. Compounds were soluble in water (DDW), and commercial herbicide control was soluble in formulation B (Table 4). Application was conducted with an industrial sprayer (TeeJet 6502E nozzle) at a rate of 2 kg/ha and spray volume of […]. Pre-emergence advanced dose response experiment application was conducted at six rates between 1-0.0312 kg/ha and spray volume of […]. Percentage of emergence was evaluated at 15 DAA. Visual phenotyping was recorded using a scale of 0-6 (0: no visible effect, 6: maximum effect) at 18 DAA. All experiments included an untreated control, a solvent control and a positive control (commercial herbicide A.I.). Statistical analysis for visual phenotyping determined by a median value of ≥3.5 and Fisher test (pval≤0.05). Statistical analysis for plant emergence determined by % emergence ≥50 and T test (pval≤0.05), as well as Wilcox test (pval≤0.05).

A further test relates to POAAN. Kind of test: In-planta LTP pre-emergence, visual phenotype. Conditions: monocot; for pest or weed control at 2000 g/ha: Poa annua, 432 h, read-out: IG Inhibited growth (% effect). Format: in vivo, Poa annua. On the procedure:
as §1

Test [1] deals with AMAPA. Kind of test: In-planta LTP post-emergence, visual phenotype. Format: in vivo, Amaranthus palmeri. Conditions: dicot. The method, then:
A basic panel of eight weed species (Table 3) sowed in 4×4×7 cm plastic pots containing a garden mix (klasmann). Each specie was sowed in a separate pot. In each pot, 10-15 seeds were sowed according to the specie viability. Timing of application determined at a 1-2 true leaf stage. The plants grew for 30 days in a controlled greenhouse (26±2° C. day, 20±2° C. night). Hood irrigation (tap water+Shefer 5:3:8 8 mM) was given at a 50% water content by weight. Two days before application, the tested plants thinned down to three plants per pot. Compounds were soluble in water (DDW), and commercial herbicide control was soluble in formulation B (Table 4). Before application, 1% (v/v) crop oil and 0.02% (v/v) surfactant (Tergitol™ 15-5-7) were added to the solution. Application was conducted with an industrial sprayer (TeeJet 6502E nozzle) at a rate of 2 kg/ha and spray volume of […]. Plants were evaluated at 3 time points (4, 8, 12 days after application (DAA)). At each time point, visual phenotyping was recorded using a scale of 0-6 (0: no visible effect, 6: maximum effect). At 12 DAA, plants foliage was harvested, dried and weighed for dry weight analysis.
Post-emergence advanced dose response experiment included 4 species: SETVI, ECHCO, AMAPA, ABUTH (Tables 3, 5). Application was conducted at six rates between 0.6-0.0187 kg/ha and spray volume of […]. Plants were evaluated at 4 time points (6, 12, 18 and 26 DAA). At each time point, visual phenotyping was recorded using a scale of 0-6 (0: no visible effect, 6: maximum effect). At 26 DAA, plants foliage was harvested, dried and weighed for dry weight analysis.
Post-emergence advanced wide panel experiment included 24 weed species (Table 5). Application was conducted at 2 rates of 2 kg/ha and 0.25 kg/ha and spray volume of […]. Visual phenotyping was recorded at 4, 11, 17 and 20 DAA using a scale of 0-6 (0: no visible effect, 6: maximum effect). At 21 DAA, plants foliage was harvested, dried, and weighed for dry weight analysis. All experiments included an untreated control, a solvent control, and a positive control (commercial herbicide A.I.). Statistical analysis for visual phenotyping determined by a median value of ≥3.5 and Fisher test (pval≤0.05). Statistical analysis for dry weight determined by % inhibition ≥50 and T test (pval≤0.05), as well as Wilcox test (pval≤0.05).

The test system of the next test is Eragrostis teff. Kind of test: HTPS - Monocot - Pre-emergence. Format: in vivo. Conditions: N/A: not active; for Emax: read-out: HTPS - Monocot - Pre Max effect. On the procedure: (§2) Arabidopsis thaliana seeds were sown in 96 well plates filled with irrigated Sweet sand (10%>clay) that is washed from salts and minerals using tap water. 5-10 seeds were sown in the center of each well. 7-8 days post sowing, at 2 true leaves stage, thinning out was performed to ensure that compound application is done on a single plant per well. The plates were placed in a controlled greenhouse in a random order inside a bath which allows flooding irrigation with tap water supplemented with a fertilizer. Applied compounds were dissolved into a final solution of 50% acetone, 49.9% DDW, 0.1% tween-20. A 96 well plate was used as a stock plate for preparing application solutions for 8 repeats. Each row contained different concentrations per chemical. Maximal concentration for application was 1.5 Kg/Ha and dilution factor is 2.5. Chemical application was performed one day after thinning out in a chemical hood. 5 μL applied on first two true leaves in each well using 12 channel pipettes. Data collection: RGB (red, green, blue) data for green area per well was documented using camera. Data is collected at a few time points during the experiment: one day after thinning and before chemical application, two-, six- or nine-days post application. During the last two documentations, visual phenotyping was performed. Data analysis: Given RGB results and visual phenotype scores, a student t-test conducted to compare between treatment and control performance for continuous data (RGB) and Fisher exact test to analyze the non-continuous data (phenotypic scores). Dose-Response curves are generated for each treatment to infer ED50 and max. inhibition parameters, using treatment's log concentration range as the […] variable and normalized green area. These experiments are conducted similarly except that either Arabidopsis thaliana or Eragrostis teff seeds were sowed (5-10 or 5-7, respectively), plant thinning out was not performed, compound dissolved into a final solution of 50% acetone, 49.9% DDW, compound application was done at 30 μL volume per well directly on sowed soil before plant emergence and data was collected 10 or 7 days after chemical application on dicot or monocot plants, respectively. Plate imaging performed at 11 and 18 DAA. RGB data for green area per well was documented and used to extract % inhibition. Dose-Response curves were built for each treatment to infer ED50, ED75 and ED90 parameters, using treatment's log concentration range as the independent variable and normalized green area as the dependent variable. Treatments were compared to controls performance given RGB results and using student's t-test (p-val≤0.05).

Test [2] relates to AMAPA. Kind of test: In-planta LTP pre-emergence, visual phenotype. Conditions: Amaranthus palmeri, 432 h, dicot, read-out: IG Inhibited growth (% effect). Format: in vivo, Amaranthus palmeri. On the procedure:
as §1

Test [3] is described as follows: in vitro thermal shift (binding of compound to the target). Conditions: thermal shift caused by binding of the compound to the (unnamed) target.
In test [4] the test system is Arabidopsis thaliana. Kind of test: HTPS (high throughput on soil) - Dicot - Post-emergence. Conditions: N/A: not active; for Emax: read-out: HTPS - Dicot - Post Max effect; for HTPS - Dicot - Post ED50: from normalized green area. Format: in vivo. The method, then: as §2, with “area.” for “area. These experiments are conducted similarly except that either Arabidopsis thaliana or Eragrostis teff seeds were sowed (5-10 or 5-7, respectively), plant thinning out was not performed, compound dissolved into a final solution of 50% acetone, 49.9% DDW, compound application was done at 30 μL volume per well directly on sowed soil before plant emergence and data was collected 10 or 7 days after chemical application on dicot or monocot plants, respectively.”

The subject of test [5] is Arabidopsis thaliana. Kind of test: HTPS - Dicot - Pre-emergence. The format is in vivo. Conditions: N/A: not active; for Emax: read-out: HTPS - Dicot - Pre Max effect. The method, then:
as §2

Another test concerns MATCA. Kind of test: In-planta LTP pre-emergence, visual phenotype. Conditions: dicot. The format is in vivo, Matricaria chamomilla. The method, then: as §1
The subject of the next test is ALOMY. Kind of test: In-planta LTP pre-emergence, visual phenotype. Format: in vivo, Alopecurus myosuroides. Conditions: monocot. On the procedure:
as §1

[6] abbreviates: read-out: DE Disturbed emergence (% effect).
[7] abbreviates: read-out: IG Inhibited growth (% effect).

Where two headings read alike, the source gives them in different places.

Turning to `CC(N)COc1cc(Cl)cc(C(=O)O)c1` (stereo not drawn) [Compound 109], the pest or weed control at 2000 g/ha in the test on SETVI (setting [6]) is 100%; in the test on POAAN, 100%; with AMAPA [2], 60%. In the test with POAAN, the “DE Disturbed emergence (% effect)” value is recorded as “DE (100), %”. Moreover, the “BL Bleaching (% effect)” value with AMAPA [1] was “BL (40) %”. Also, the “HTPS - Monocot - Pre ED50” value with Eragrostis teff is on record as 681 g/ha. For the same compound, in the test on Eragrostis teff, the Emax is 80%. In addition, in test [3], the “in vitro Thermal Shift” value was found to be 14 °C.

Turning to `CC(N)COc1ccc(F)c(C(=O)O)c1` (stereo not drawn) [Compound 108], the pest or weed control at 2000 g/ha with SETVI (setting [6]) stood at 100%; in the test on SETVI (setting [7]), 100%; in the test with POAAN, 80%; in the test on AMAPA [2], 60%. For the same compound, the Emax in the test with Arabidopsis thaliana [4] amounted to 100%; in the test on Arabidopsis thaliana [5], 100%; with Eragrostis teff it was 80%. In addition, in the test on Arabidopsis thaliana [4], the “HTPS - Dicot - Post ED50” value worked out at 31 g/ha. The “HTPS - Dicot - Pre ED50” value with Arabidopsis thaliana [5] amounted to 31 g/ha. For the same compound, the “DE Disturbed emergence (% effect)” value in the test with POAAN was “DE (80) %”. Also, the “HTPS - Monocot - Pre ED50” value in the test on Eragrostis teff is listed as 290 g/ha. The “in vitro Thermal Shift” value in [3] amounted to 16 °C.

On to `COC(=O)c1cccc(OCC(C)N)c1` (stereo not drawn) [Compound 110], for which the pest or weed control at 2000 g/ha in the test with SETVI (setting [7]) was 80%. In the test with Arabidopsis thaliana [4], the Emax was 100% and the “HTPS - Dicot - Post ED50” value was 38 g/ha. Moreover, in the test with Arabidopsis thaliana [5], the “HTPS - Dicot - Pre ED50” value is 80 g/ha and the Emax came out at 100%. Further, the “in vitro Thermal Shift” value in [3] came out at 4 °C.

Regarding `CC(N)COc1cncc(C(=O)O)n1` (stereo not drawn) [Compound 148], the pest or weed control at 2000 g/ha in the test with SETVI (setting [6]) is 100%; in the test on SETVI (setting [7]) it was 100%; with POAAN, 40%. Also, the “DRD Disturbed root development (% effect)” value with SETVI is “DRD^7 (100), %”; in the test with POAAN it was “DRD (40) %”; with ALOMY, “DRD (60) %”. For the same compound, the “DE Disturbed emergence (% effect)” value in the test with MATCA is recorded as “DE (40) %”. Moreover, the Emax in the test on Arabidopsis thaliana [4] was 17%; with Arabidopsis thaliana [5], 28%; in the test with Eragrostis teff it was 100%. Further, the “in vitro Thermal Shift” value in test [3] came out at 12 °C.

With `CC(CN)Oc1cccc(C(=O)O)c1` (stereo not drawn) [Compound 102], the pest or weed control at 2000 g/ha in the test on SETVI (setting [6]) is 100%; with SETVI (setting [7]), 100%; with POAAN it was 60%; in the test on AMAPA [2], 60%. In addition, the results for the Emax with Arabidopsis thaliana [4], with Arabidopsis thaliana [5] and in the test with Eragrostis teff were 92%, 100% and 62%, respectively. Moreover, the “HTPS - Dicot - Post ED50” value with Arabidopsis thaliana [4] amounted to 127 g/ha. Moreover, the “HTPS - Dicot - Pre ED50” value in the test with Arabidopsis thaliana [5] was found to be 127 g/ha. For the same compound, the “HTPS - Monocot - Pre ED50” value with Eragrostis teff was 650 g/ha. Further, in test [3], the “in vitro Thermal Shift” value was determined as 13 °C.
